According to US5028629A, “5-Lipoxygenase inhibitors” (Eli Lilly and Company, priority 1990, dated 1991):
Where two headings read alike, the source gives them in different places.

Experiments:
[1] = biological target: T1, 5-lipoxygenase (Cavia porcellus, UniProt A0A286X958); assay: 5-Lipoxygenase (5-LO) Assay: 5-HETE formation in supernatant of guinea pig PMNL sonicate; type: biochemical
T1 construct: 0.2 ml of the supernatant obtained from the PMNL sonicate; endogenous in cells; host or cells: casein-elicited guinea pig peritoneal polymorphonuclear leukocytes (PMNL), sonicate, 30,000 x g supernatant
T1 sequence (A0A286X958 1-674): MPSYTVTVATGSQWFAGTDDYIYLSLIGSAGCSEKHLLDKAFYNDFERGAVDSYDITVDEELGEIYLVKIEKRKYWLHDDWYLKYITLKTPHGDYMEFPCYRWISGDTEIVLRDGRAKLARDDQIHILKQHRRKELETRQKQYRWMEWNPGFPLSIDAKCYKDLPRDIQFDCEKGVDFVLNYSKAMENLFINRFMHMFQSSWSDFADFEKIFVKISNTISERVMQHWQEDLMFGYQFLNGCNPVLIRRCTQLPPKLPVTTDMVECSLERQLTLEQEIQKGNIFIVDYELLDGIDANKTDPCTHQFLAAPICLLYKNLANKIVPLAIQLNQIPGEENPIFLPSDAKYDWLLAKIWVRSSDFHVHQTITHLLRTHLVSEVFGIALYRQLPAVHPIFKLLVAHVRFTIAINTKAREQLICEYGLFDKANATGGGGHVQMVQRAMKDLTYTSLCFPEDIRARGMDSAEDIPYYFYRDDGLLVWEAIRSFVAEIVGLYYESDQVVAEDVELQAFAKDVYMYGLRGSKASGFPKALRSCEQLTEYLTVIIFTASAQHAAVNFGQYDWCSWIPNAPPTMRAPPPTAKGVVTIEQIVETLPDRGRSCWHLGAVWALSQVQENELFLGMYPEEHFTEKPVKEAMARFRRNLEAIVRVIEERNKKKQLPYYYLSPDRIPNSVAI
Experimental: Ten milliliters of a 2% casein solution is injected intraperitoneally to guinea pigs weighing 250-300 gm. After 16-18 hours, the guinea pigs are killed by suffocation in a carbon dioxide chamber. The peritoneal cavity is infused with 70 ml of saline and 40-50 ml of the fluid is recovered from the cavity. After centrifugation, cell pellets are washed twice in Hank's balanced salt solution (HBSS) without calcium ion.
The cells are then suspended in 5 ml of sodium phosphate buffer, pH 7.1 containing 1 mM, ethylene diamine tetraacetic acid (EDTA), and 0.1% gelatin. About 20-30×10^7 cells are obtained from one guinea pig.
The PMNL suspension is disrupted by five 1/2-second pulse sonication at the setting of 3 in a Branson Sonifier, Model 350, equipped with a microtip. The sonicates are combined and centrifuged at 30,000 ×g for 10 minutes. The supernatant is kept frozen at -70° C. until use.
Enzyme activity is determined by assaying for 5-hydroxy-6,8,11,14-eicosatetraenoic acid (5-HETE) formation by first incubating 0.2 ml of the supernatant obtained from the PMNL sonicate with the test compound, 1 mM CaCl2, 2 mM ATP, and 1 mM GSH for 5 minutes at 37° C. The mixture is treated with […] ^14 C-arachidonic acid and incubated at 37° C. an additional 10 minutes. The enzyme reaction is then stopped by the addition of 10 μl of 1M citric acid and 10 μl of an alcohol solution containing 20 mg/ml each of indomethacin and butylated hydroxyanisole (BHA). The reaction mixture is spotted (50 μl) on a silica gel plate (Baker TLC plate S1250-PA-19C) and subjected to TLC in a solvent system of ethyl acetate/2,2,4-trimethylpentane/glacialacetic acid/H2 O (90:50:20:100).
The radioactivity of the arachidonic acid and its metabolites (5-HETE and LTB4) is visualized from a developed x-ray film which had been exposed to the TLC plate 1-2 days. The amount of 5-HETE formed is quantitated by scraping the silica gel area corresponding to the spot on the x-ray film, and the radioactivity determined in a Isocap/300 liquid scintillation counter (Searle Analytic, Inc.).
The percent inhibition of the formation of 5-HETE is determined for each concentration of compound tested as compared to a control experiment wherein no test compound is added. The concentration and percent values are plotted on semi log paper and the concentration in which formation of 5-HETE is inhibited by 50% (IC50) is determined by interpolation.

[2] = test system: polymorphonuclear leukocytes (PMNs); assay: H-PMN Assay: LTB4 content of supernatant of A23187-stimulated human PMNs by radioimmunoassay; type: cell-based
Experimental: Sodium citrated venous blood is drawn from normal human subjects. After centrifugation at 300 ×g for 15 minutes, the platelet-rich layer of plasma is discarded and an equal volume of Hanks' balanced salt solution (HBSS) is added to the enriched cell fraction. This platelet-depleted cell suspension is then layered on an equal volume of Ficoll-Paque. After centrifugation for 40 minutes at 300 ×g, the bottom layer containing erythrocytes and polymorphonuclear leukocytes (PMNs) is diluted with two volumes of a 0.2% methocel solution. The erythrocytes are sedimented upon standing for 15 minutes, and the supernatant containing the PMNs is aspirated and centrifuged at 300 ×g, for 5 minutes. The cell pellet is then exposed to 0.2% NaCl for 30 seconds to lyse any remaining erythrocytes, and the ionic strength of the suspension is readjusted to 0.9% with NaCl. The PMNs are recovered by centrifugation at 300 ×g for 5 minutes and are suspended in HBSS to a concentration of 2 ×10^6 cells/ml.
The test compounds are dissolved in and diluted with dimethylsulfoxide (DMSO) which also contains 2×10^-6 M of the calcium ionophore, A23187. To 1 ml of the PMN suspension, 10 μl of the DMSO solution is added, and the mixture is incubated at 37° C. for 10 minutes. The PMNs are rapidly pelleted in a microcentrifuge, and the supernatant is kept at -20° C. for future determination of LTB4 content via the radioimmunoassay.

[3] = Table II, guinea pig PMNL sonicate supernatant, 14C-arachidonic acid, 37° C., read-out: 5-LO (concentration in which formation of 5-HETE is inhibited by 50%, IC50)
[4] = Leukocyte, 10 min, Table II, human PMNs, calcium ionophore A23187, 37° C. for 10 minutes, LTB4 by radioimmunoassay

Row | Compound | IC50 [1, 3] | IC50 [2, 4] | IC50 ([2]; Table II, human PMNs, calcium ionophore A23187, 37° C. for 10 minutes, LTB4 by radioimmunoassay) | IC50 ([1]; second table (Table III), known hydroxamic acid derivatives as comparison, read-out: 5-Lo (IC50)) | IC50 ([2]; Homo sapiens, Leukocyte, second table (Table III), known hydroxamic acid derivatives as comparison)
1 | CN(O)C(=O)C=Cc1ccccc1SCCCc1ccccc1 [Example 35, 2-[1-(3-phenylpropyl)thio]-N-hydroxy-N-methylcinnamamide] | 9 nM | 16 nM |  |  | 
2 | 2-methylsulfonyl-4-n-hexyl-N-hydroxy-N-methylcinnamamide [Example 22] | 148 nM |  | 204 nM |  | 
3 | CCCCCCc1ccc(S(C)(=O)=O)c(C=CC(=O)N(C)O)c1 [Example 9, 2-methylsulfonyl-5-n-hexyl-N-hydroxy-N-methylcinnamamide] | 90 nM | 259 nM |  |  | 
4 | CSc1ccccc1C=CC(=O)N(C)O [Example 23, 2-methylthio-N-hydroxy-N-methyl-cinnamamide] | 392 nM | 100 nM |  |  | 
5 | CCCCCCSc1ccccc1C=CC(=O)N(C)O [Example 3, 2-n-hexylthio-N-hydroxy-N-methylcinnamamide] | 17 nM | 9 nM |  |  | 
6 | COc1ccccc1C=CC(=O)N(C)O [reference compound] |  |  |  | 1200 nM | 143 nM
7 | CCCCCCc1cccc(C=CC(=O)N(C)O)c1[S+](C)[O-] (centres unmarked) [Example 20, 2-methylsulfinyl-3-n-hexyl-N-hydroxy-N-methylcinnamamide] | 459 nM | 190 nM |  |  | 
8 | CN(O)C(=O)C=Cc1ccccc1Cc1ccccc1 [Example 37, 2-benzyl-N-hydroxy-N-methylcinnamamide] | 53 nM | 28 nM |  |  | 
9 | CN(O)C(=O)C=Cc1ccccc1SCCCCCC(F)(F)F [Example 44, 2-[1-(5-trifluoromethylpentyl)thio]-N-hydroxy-N-methylcinnamamide] | 31 nM | 17 nM |  |  | 
10 | CCc1ccc(CCCc2ccccc2)cc1C=CC(=O)N(C)O [Example 30, 2-ethyl-5-(3-phenylpropyl)-N-hydroxy-N-methylcinnamamide] | 59 nM | 46 nM |  |  | 
11 | CCCCc1ccccc1C=CC(=O)N(C)O [Example 4, 2-n-butyl-N-hydroxy-N-methylcinnamamide] | 72 nM | 75 nM |  |  | 
12 | CN(O)C(=O)C=Cc1ccccc1SCCCC(F)(F)F [Example 5, 2-[1-(3-trifluoromethylpropyl)thio]-N-hydroxy-N-methylcinnamamide] | 32 nM | 24 nM |  |  | 
13 | CC(C)CSc1ccccc1C=CC(=O)N(C)O [Example 40, 2-[1-(2-methylpropyl)thio]-N-hydroxy-N-methylcinnamamide] | 52 nM | 17 nM |  |  | 
14 | CN(O)C(=O)C=Cc1ccccc1SCc1ccccc1 [Example 31, 2-benzylthio-N-hydroxy-N-methylcinnamamide] | 33 nM | 7 nM |  |  | 
15 | CCCCCCc1ccc(C=CC(=O)N(C)O)c([S+](C)[O-])c1 (centres unmarked) [Example 10, 2-methylsulfinyl-4-n-hexyl-N-hydroxy-N-methylcinnamamide] | 97 nM | 118 nM |  |  | 
16 | CCCCCCCCSc1ccccc1C=CC(=O)N(C)O [Example 38, 2-n-octylthio-N-hydroxy-N-methylcinnamamide] | 28 nM | 11 nM |  |  | 
